{"source": "patent US20110124741A1", "about": "“RADIOSENSITIZER COMPOSITIONS COMPRISING SCHISANDRA CHINENSIS(TURCZ.)BAILL AND METHODS FOR USE” (ETEN BIOTECHNOLOGY LTD., CO., priority 2009, published 2011)", "key": {"HepG2 cells [1]": {"system": "HepG2 cells", "assay": "Western blot of apoptosis-related proteins (Bcl-2, p21, caspase 9 cleaved form, caspase 3 cleaved form)", "type": "cell-based, human", "conditions": "12 μg/ml in combination with 8 Gy", "protocol": "HepG2 cells were seeded in 6-cm dish (2.5×10^5 cells/dish) for 24 hours of incubation. […] The cells were exposed at 8Gy of radiation (Linear accelerator, Philips SL-18), and incubated for another 48 hours. After collection, the cells were washed by PBS for three times, and then centrifuged at 360×g for 5 min. After removing the supernatant, 120 μl CelLytic-M (Sigma) and 1 μl Protease Inhibitor Cocktail (Sigma) were added into the pellet to suspend the cells and then the suspension was incubated at 4° C. for 30 min. The total protein was collected from the supernatant by centrifugation at 27210×g for 10 min.\n[…] protein was loaded to run an SDS-PAGE. The gel was then transferred to PVDF and immersed into TTBS solution (2.42 g Tris base/8 g NaCl/0.1% Tween-20/per liter) containing 5% […] milk for blocking. The membrane was reacted with each primary antibody against p21, Bcl-2, caspase 9 (cleaved form), caspase 3 (cleaved form) and β-actin overnight at 4° C. After the reaction, the membrane was washed by TTBS solution three times, and then reacted with appropriate secondary antibody for another 30-min incubation. […] The bands were quantified by GE ImageMaster 2D Platinum Software. […]\nThe expression level of apoptosis protein in HepG2 was also detected by western blot. […]"}, "HepG2 cells [2]": {"system": "HepG2 cells", "assay": "Annexin V-FITC/PI staining apoptosis assay by flow cytometry, with 8 Gy radiation", "type": "cell-based, human", "excerpt": "Annexin V is a 35-36 kDa Ca2+ dependent phospholipid-binding protein that has a high affinity for the membrane phospholipid phosphatidylserine (PS), and binds to cells with exposed PS. Since externalization of PS occurs in the earlier stages of apoptosis, Annexin V staining can identify apoptosis at an earlier stage than assays based on nuclear changes such as DNA fragmentation. A vital dye such as propidium iodide (PI) is typically used in conjunction with Annexin V to identify the viability of the cells. For example, cells that are considered viable are Annexin V and PI negative; cells that are in early apoptosis are Annexin V positive and PI negative; and cells that are in late apoptosis or already dead are both Annexin V and PI positive, wherein the membranes of dead and damaged cells are permeable to PI. The Annexin V staining assay was performed by Annexin V-FITC-Kit purchased from Beckman Coulter, Inc (U.S.A). The protocol was conducted according to the manufacturing manuscript.\nHepG2 cells were seeded in 6-cm dish (2.5×10^5 cells/dish) for 24 hours of incubation. Various concentration of ES800 (40 or 80 μg/ml) were added into the culture medium, and then incubated for another 24 hours, wherein 0.008% DMSO was added to the control group. The cells were exposed at 8 Gy of radiation (Linear accelerator, Philips SL-18), and incubated for another 48 hours. After collection, the cells were washed by pre-cold PBS and centrifuged at 500×g. The supernatant was removed and the cells were re-suspended with binding buffer. 1 μl Annexin V-FITC solution and 5 μl PI solution were added into the cell suspension and reacted away from light on ice for 15 min. Finally, 400 μl pre-cold binding buffer was added and the samples were analyzed by flow cytometer within 30 min. The percentages of Annexin V^+ and PI^+/− double staining cells were plotted in FIG. 2.\nHepG2 cells were seeded in 6-well plate (2.5×10^5 cells/well) for 24 hours of incubation. Various concentrations of ES800 (40 or 80 μg/ml) and Schisandrin B (12 or 24 μg/ml) were added into the culture medium, and then incubated for another 2 hours, wherein control group was added 0.008% DMSO. The cells were exposed at 8 Gy of radiation (Linear accelerator, Philips SL-18), and incubated for another 70 hours. After collection, the cells were washed by pre-cold PBS and centrifuged at 500×g. Following removing the supernatant, the cells were suspended with binding buffer. 1 μl Annexin V-FITC solution and 5 μl PI solution were added into the suspension and the mixture was reacted away from light on ice for 15 min. Finally, 400 μl pre-cold binding buffer was added and the samples were analyzed by flow cytometer within 30 min. The percentages of Annexin V^+ and PI^+/− double staining cells were plotted in FIG. 7."}}}
{"smiles": "COc1cc2c(c(OC)c1OC)-c1c(cc3c(c1OC)OCO3)CC(C)C(C)C2", "note": "(centres unmarked) [Schisandrin B]", "values": [{"measurement": "expression level of caspase 3 (cleaved form), compared with radiation alone (FIG. 8)", "setting": "HepG2 cells [1]", "result": "significantly higher"}, {"measurement": "apoptosis ratio of HepG2, compared with radiation of 8 Gy alone (FIG. 7)", "setting": "HepG2 cells [2]; 24 μg/ml in combination with 8 Gy, 2 h pre-incubation, 70 h after radiation", "result": "significantly higher"}, {"measurement": "apoptosis ratio of HepG2, compared with the control group (FIG. 7)", "setting": "HepG2 cells [2]; 12 or 24 μg/ml in combination with 8 Gy, 2 h pre-incubation, 70 h after radiation", "result": "significantly higher"}, {"measurement": "effect on the apoptosis of cancer cells (FIG. 7)", "setting": "HepG2 cells [2]; 12 or 24 μg/ml without exposure of radiation", "result": "no effect"}, {"measurement": "effect in inhibition of the growth of cancer cells, compared with radiation therapy alone (FIG. 7)", "setting": "HepG2 cells [2]; Schisandrin B in combination of radiation therapy", "result": "enhanced effect"}]}
